# Source: patent US20220257596A1, “METHODS FOR TREATING MEIBOMIAN GLAND DYSFUNCTION WITH LIVER X RECEPTOR AGONISTS” (Novartis AG, priority 2019, published 2022)
# pEC50: −log10 of the molar value.
# Columns and labels:
# [1] = system: SZ95 (immortalized human sebaceous gland cells) cells; test: Sentinel lipid assay (desaturation index in SZ95 sebocytes); type: cell-based; conditions: for pEC50: SZ95 cells, 72h incubation, top concentration 10 μM, desaturation index, read-out: SLA EC50; for Emax: percent compared to the reference compound (Compound H), 72h, read-out: SLA Amax
# Protocol: SZ95 (immortalized human sebaceous gland cells) cells were seeded in Greiner bio-one 96-well polypropylene plates that were pre-treated with 50 μg/ml Human Plasma Fibronectin (Thermo Fisher Scientific) at a density of 10^4 cells/135 μl. Cells were incubated in a humidified incubator with 5% CO2 at 37° C. overnight. Test compounds were diluted at a ratio of 1:3 and added to cells at final concentrations starting from 10 μM. Compound H was used as a positive control reference compound in each plate. Cells in the assay plate were incubated in a humidified incubator with 5% CO2 at 37° C. for 72h.
# Culture medium was removed from the cells and cells in culture plates were washed with ice cold phosphate buffered saline three times. Plates were heat sealed and stored in a −80° C. freezer prior to Sentinel lipid assay.
# Sentinel lipid assay: The sentinel lipid assay was used quantify the change in the global desaturation index in SZ95 sebocytes upon administration of LXR agonist compounds. The assay measures a smaller subset of lipid analytes in […] (termed “sentinel lipids”) which would model the global changes the population of both saturated and desaturated lipids in the cells. In order to define this smaller subset of lipids, a complete lipid profile was recorded on dose response curves (eight levels from 4 nM to 10 uM) of Compounds A-N. An elastic net regression model was applied separately to both the saturated and desaturated lipids to determine the minimum combination of coefficients and analytes which could be used to adequately model the total population of lipids. The elastic net model was able to reduce the behavior of 425 lipids to 11 lipids and the correlation between the desaturation indices observed using the complete set of lipids with from the 11 sentinel lipids was 0.96.
# A medium throughput assay was created using this reduced set of sentinel lipids. A single batch is defined as triplicate examples of three unique plates (i.e., a single batch of cells is used to create nine plates for LC-MSMS analysis). Lipids were extracted from the cells using a 1:1 mixture of methylene chloride/methanol containing 10 nM of deuterated standards of triglycerides, which are used as internal standards for quantitating the lipid abundance. The lipids were separated prior to mass spectrometric analysis using a five minute HPLC gradient. The abundance of the sentinel lipids and the internal standards are measured using multiple reaction monitor mode (MRM) on a triple quadrupole mass spectrometer. The data was transformed from total ion current to nmoles/10^6 cells, which are multiplied by the coefficients from the elastic net model to determine the effective desaturated and saturated content, and therein the desaturation index of the dosed cells. In order to compare compounds from multiple batches with one another, the measure raw desaturation index was normalized by dividing it by the desaturation index of the DMSO dosed cells, and all data was assessed as the fraction by which the compound increases the desaturation index above 1. The Amax value refers to the percent […] of the tested compound compared to the reference compound.
# [2] = system: SCD1 protein production in SZ95-SCD1-HiBit cells; test: Measurement of SCD1 expression in SZ95-SCD1-HiBit cells (HiBiT assay); type: cell-based; conditions: Homo sapiens; for pEC50: SZ95-SCD1-HiBit cells, 48h incubation, top concentration 18 μM; for Emax: percent compared to the reference compound (Compound H), 48h, read-out: HiBit Amax
# Protocol: SZ95-SCD1-HiBit cells were seeded in 384-well cell culture white plates at a density of 3000 cells/30 ul. Water is added to edge wells to avoid evaporation. Cells were incubated in a humidified incubator with 5% CO2 at 37° C. overnight. Tested compounds were diluted at a ratio of 1:3 using Agilent BRAVO Automated Liquid Handling Platform and added to cells at final concentrations starting from 18 μM. Compound H was used as a reference compound in each plate. Cells in the assay plate were incubated in a humidified incubator with 5% CO2 at 37° C. for 48h.
# The assay plates were removed from the incubator and allowed to equilibrate to room temperature. Nano-Glo® HiBiT Detection Reagent (Promega; a mixture of Nano-Glo HiBiT Detection Buffer, Nano-Glo HiBiT Detection Substrate, and LgBiT protein) was added into assay plates, at a volume equal to cell culture medium in each well. Plates were placed on an orbital shaker at a speed of 300-600 rpm for 10 min at room temperature, and read on an EnVision Plate Reader using luminescence detection with a 1 second read time.
# The assay measures the increase in SCD1 protein production in vitro. Amax refers to the percent […] of the tested compound compared to the reference compound.
# [3] = In vivo measurement of lowered meibum melting temperature (DSC); parameters: species or system Sprague Dawley rats; conditions: for Change of Tm: compound versus vehicle, rat meibum, DSC (method gives °C); for Mean ± SEM of Compound (meibum melting temperature): naive Sprague Dawley rats, 1% compound, DSC peak temperature (method gives °C), in °C; for Meibum melting temperature, in words: rat eyes, concentration of 1%, in comparison to vehicle
# Protocol: For specific compounds Compound B and Compound C, the lowering of rat meibum melting temperature was measured in naive Sprague Dawley rats. The test animals were administered either vehicle or Compound B or Compound C, the meibum collected upon administration of the compounds was analyzed by differential scanning calorimetry to measure the melting point. The lowering of meibum melting point in rats administered Compound B or Compound C were compared to vehicle.
# Melting properties of meibum were obtained using differential scanning calorimetry thermograms, recorded on a TA Discovery Q5000 (ThermoAnalytical). Samples were sealed in standard 40 μl aluminum pans and subjected to a heat-cool-heat cycle with melting temperatures being recorded on the second heating ramp. The samples were first heated to 150° C. at 30K/min then cooled −30° C. at 30K/min. Next, the sample was heated to 75° C. with an underlying heating rate of 2K/min, a period of modulation of 60 seconds and a temperature amplitude of modulation of 1° C. Dry N2 gas, at a flow rate of 50 mL/min was used to purge the DSC equipment during the measurement. Onset of melting and peak temperatures were recorded with peak temperature quoted as the melting point.
# Results from the assay are shown Table 3 and in FIGS. 1 and 2. Results were analyzed using an unpaired t test with Welch's correction.
Structure (SMILES),pEC50 [1],Emax [1],pEC50 [2],Emax [2],Change of Tm [3],Mean ± SEM of Compound (meibum melting temperature) [3],"Meibum melting temperature, in words [3]"
"Fc1ccc(-c2c3cccc(C(F)(F)F)c3nn2Cc2ccc(F)cc2Cl)cc1 [Compound L, 2-(2-chloro-4-fluorobenzyl)-3-(4-fluorophenyl)-7-(trifluoromethyl)-2H-indazole]",< 5.00,33.3%,< 4.74,48.4%,,,
"CN(C)C(=O)c1ccc(N2CCC(C3CCN(S(=O)(=O)c4ccccc4Cl)CC3)CC2)cc1Cl [Compound M, 2-chloro-4-(1′-((2-chlorophenyl)sulfonyl)-[4,4′-bipiperidin]-1-yl)-N,N-dimethylbenzamide]",< 5.00,29.2%,< 4.74,39.1%,,,
"CC(C)[C@@H]1CN(c2ccc(CO)c(S(C)(=O)=O)c2)CCN1c1ncc(CO)c(C(F)(F)F)n1 [Compound D, (R)-(2-(4-(4-(hydroxymethyl)-3-(methylsulfonyl)phenyl)-2-isopropylpiperazin-1-yl)-4-(trifluoromethyl)pyrimidin-5-yl)methanol]",7.38,65.6%,8.70,66.2%,,,
"CC(C)[C@@H]1c2nc3cc(CO)c(S(C)(=O)=O)cc3n2CCN1c1ncc(C(C)(C)O)c(C(F)(F)F)n1 [Compound N, (R)-2-(2-(8-(hydroxymethyl)-1-isopropyl-7-(methylsulfonyl)-3,4-dihydrobenzo[4,5]imidazo[1,2-a]pyrazin-2(1H)-yl)-4-(trifluoromethyl)pyrimidin-5-yl)propan-2-ol]",7.28,165%,8.40,72.4%,,,
"O=C(O)Cn1ccc2c(OCCCN(Cc3cccc(C(F)(F)F)c3Cl)CC(c3ccccc3)c3ccccc3)cccc21 [Compound A, 2-(4-(3-((2-chloro-3-(trifluoromethyl)benzyl)(2,2-diphenylethyl)amino)propoxy)-1H-indol-1-yl)acetic acid]",8.14,104%,8.31,94%,,,
"O=S(=O)(c1ccccc1)N(CC(F)(F)F)c1ccc(C(O)(C(F)(F)F)C(F)(F)F)cc1 [Compound F, N-(4-(1,1,1,3,3,3-hexafluoro-2-hydroxypropan-2-yl)phenyl)-N-(2,2,2-trifluoroethyl)benzenesulfonamide]",6.72,89.8%,7.32,76.1%,,,
"CN(C)C(=O)c1ccc(-c2cnc(N3CCN(C(=O)C(C)(C)c4ccccc4)CC3)c(C#N)c2)cc1Cl [Compound K, 2-chloro-4-(5-cyano-6-(4-(2-methyl-2-phenylpropanoyl)piperazin-1-yl)pyridin-3-yl)-N,N-dimethylbenzamide]",6.34,151%,6.27,66%,,,
"CC(C)(O)c1cn(-c2ccc(-c3cc(F)c(CO)c(S(C)(=O)=O)c3)cc2F)c(C(C)(C)c2c(Cl)cccc2Cl)n1 [Compound I, 2-(2-(2-(2,6-dichlorophenyl)propan-2-yl)-1-(3,3′-difluoro-4′-(hydroxymethyl)-5′-(methylsulfonyl)-[1,1′-biphenyl]-4-yl)-1H-imidazol-4-yl)propan-2-ol]",5.34,60.2%,< 4.74,43.3%,,,
"CCCc1c(OCCCN(C)c2cnc(CC(=O)O)cn2)ccc2c(C(F)(F)F)noc12 [Compound E, 2-(5-(methyl(3-((7-propyl-3-(trifluoromethyl)benzo[d]isoxazol-6-yl)oxy)propyl)amino)pyrazin-2-yl)acetic acid]",7.16,81.8%,7.53,77.9%,,,
"CC(C)(C)N1C(=O)C(Nc2ccc(N3CCCCC3)cc2)=C(c2ccccc2)S1(=O)=O [Compound B, 2-(tert-butyl)-5-phenyl-4-((4-(piperidin-1-yl)phenyl)amino)isothiazol-3(2H)-one 1,1-dioxide]",6.77,92%,8.74,64%,−1.534 ± 0.3522,29.1 ± 0.2363,decrease in meibum melting temperature
"C[C@H](CCOc1cccc(C(C)(C)C(=O)O)c1)N(Cc1cccc(C(F)(F)F)c1Cl)CC(c1ccccc1)c1ccccc1 [Compound C, (R)-2-(3-(3-((2-chloro-3-(trifluoromethyl)benzyl)(2,2-diphenylethyl)amino)butoxy)phenyl)-2-methylpropanoic acid]",8.26,90.7%,9.05,69.9%,−1.513 ± 0.6575,30.68 ± 0.6065,decrease in meibum melting temperature
"CCN(Cc1ccccc1)c1ccc(C(O)(C(F)(F)F)C(F)(F)F)cc1Cl [Compound J, 2-(4-(benzyl(ethyl)amino)-3-chlorophenyl)-1,1,1,3,3,3-hexafluoropropan-2-ol]",5.83,58%,6.49,77.5%,,,
"O=C(O)Cc1cccc(OCCCN(Cc2cccc(C(F)(F)F)c2Cl)CC(c2ccccc2)c2ccccc2)c1 [Compound H, 2-(3-(3-((2-chloro-3-(trifluoromethyl)benzyl)(2,2-diphenylethyl)amino)propoxy)phenyl)acetic acid]",7.06,97.4%,6.95,92%,,,
